How the values were obtained:
MCF-7DOX cells = test: Microscopic cell morphology, MCF-7DOX; assay type: cell-based, human; settings: data not shown
Procedure: For microscopic observation, cells were seeded onto standard glass coverslips in 10 cm tissue culture plates with 10 ml of H21 medium and grown for 2 days until 40-50% confluence was obtained. After treatment with paclitaxel, doxorubicin or calphostin C, the cells on the glass coverslips were washed twice with PBS (2.7 mM KCl, 1.0 mM KH2PO4, 137 mM NaCl, 10 mM Na2HPO4, pH 7.4) and stained with acridine orange/ethidium bromide (each at 4 μg/ml in PBS) for 10 min at 37° C.. The coverslips were then washed three times in PBS and mounted onto standard glass slides for morphological evaluation. For propidium iodide (PI) staining, the cells on coverslips were washed twice with PBS and fixed in methanol (cooled to −20° C.) for 20 min. Thirty μl of propidium iodide (PI) staining solution (100 μg/ml PI, 0.1% sodium citrate, 100 μg/ml RNase A and 0.3% Nonidet P-40) were then applied to the coverslips for 5 min. […] The cells were then examined using a Zeiss Axiovert 100 inverted fluorescence microscope. […] For each sample, the number of dead cells was determined by visualization after ethidium bromide staining, whereby only dead cells which have lost membrane integrity allow entry of cell-impermeable ethidium bromide into cells to complex with DNA and induce bright red fluorescence. […] The images were recorded and overlayed using Northern Eclipse software (Empix Imaging Inc., Mississauga, ON).

[1] = system: caspase-8, PARP and cytochrome C in MCF-7 cells; test: Immunoblotting of apoptosis markers, MCF-7; assay type: cell-based, human
Procedure: For preparation of mitochondrial and cytoplasmic cellular fractions, MCF-7, MCF-7TAX, and MCF-7DOX cells were grown in a monolayer to 70-90% confluence on 10 cm tissue culture plates. Twenty-four hours prior to extraction, the cells were treated with 50 nM light-activated calphostin C as described above. After this treatment, the cells were trypsinized, centrifuged at 1000 rpm in a Beckman GP centrifuge and washed with PBS. To the resulting cell pellet, 1 ml of ice-cold homogenization (HM) buffer was added. This buffer consisted of 85.55 g sucrose, 1.406 g MOPS, 0.292 g EDTA, and 1 ml ethanol per liter of solution, with a final pH of 7.2. Prior to use, 0.2 ml of 0.1 M PMSF, 1 Complete™ protease inhibitor tablet (Roche Diagnostics, Laval, QC), and 20 μl of 1 M DTT was added for 100 ml of HM buffer. Cells were then lysed 10 times by homogenization in a 2 ml dounce homogenizer. Nuclei in the lysate were then pelleted by centrifugation in a microfuge tube at 70 g for 10 minutes at 4° C. and the supernatant carefully removed. The supernatant was clarified by centrifugation at 1950 g for 10 minutes at 4° C. and the pellet (containing mitochondria) was resuspended in 50 μl of HM buffer. The remaining clarified supernatant was deemed the cytoplasmic fraction. […]

For `COc1c(C[C@@H](C)OC(=O)Oc2ccc(O)cc2)c2c3c(C[C@@H](C)OC(=O)c4ccccc4)c(OC)c(=O)c4c(O)cc(OC)c(c5c(OC)cc(O)c(c1=O)c52)c43` [calphostin C], the “concentration giving cytoplasmic vacuolization equal to MCF-7 and MCF-7TAX cells at 50 nM” value (MCF-7DOX cells) was 300 nM, the “caspase-8 and PARP cleavage (protein levels)” value ([1]; light-activated calphostin C, whole cell extracts) was “did not result in any change” and the “release of cytochrome C from mitochondria” value ([1]; mitochondrial and cytoplasmic fractions) was “no clear evidence for the release of cytochrome C”.
